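Tested at 5 concentrations; 48 h exposure; 96-well plates; endpoints linearly interpolated, else capped at highest concentration. Abbreviation: GI50, concentration required for 50% inhibition of growth. TGI marks complete inhibition of growth.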
How the values were obtained:
Assay in all cases: NCI tumour cell line growth inhibition, 48 h
786-0 renal = system: 786-0 renal
A498 renal = system: A498 renal
A549 NSCLC = system: A549 NSCLC
ACHN renal = system: ACHN renal
BT-549 breast = system: BT-549 breast
CAKI-1 renal = system: CAKI-1 renal
CCRF-CEM leukemia = system: CCRF-CEM leukemia
COLO 205 colon = system: COLO 205 colon
DU-145 prostate = system: DU-145 prostate
EKVX NSCLC = system: EKVX NSCLC
HCC-2998 colon = system: HCC-2998 colon
HCT-116 colon = system: HCT-116 colon
HCT-15 colon = system: HCT-15 colon
HL-60(TB) leukemia = system: HL-60(TB) leukemia
HOP-62 NSCLC = system: HOP-62 NSCLC
HOP-92 NSCLC = system: HOP-92 NSCLC
HS 578T breast = system: HS 578T breast
HT29 colon = system: HT29 colon
IGROV1 ovarian = system: IGROV1 ovarian
K-562 leukemia = system: K-562 leukemia
KM12 colon = system: KM12 colon
LOX IMVI melanoma = system: LOX IMVI melanoma
M14 melanoma = system: M14 melanoma
MALME-3M melanoma = system: MALME-3M melanoma
MCF7 breast = system: MCF7 breast
MDA-MB-231 breast = system: MDA-MB-231 breast
MDA-MB-435 = system: MDA-MB-435
MOLT-4 leukemia = system: MOLT-4 leukemia
NCI-H226 lung = system: NCI-H226 lung
NCI-H23 lung = system: NCI-H23 lung
NCI-H460 lung = system: NCI-H460 lung
NCI-H522 lung = system: NCI-H522 lung
NCI/ADR-RES ovarian = system: NCI/ADR-RES ovarian
OVCAR-3 ovarian = system: OVCAR-3 ovarian
OVCAR-4 ovarian = system: OVCAR-4 ovarian
OVCAR-5 ovarian = system: OVCAR-5 ovarian
OVCAR-8 ovarian = system: OVCAR-8 ovarian
PC-3 prostate = system: PC-3 prostate
RPMI-8226 leukemia = system: RPMI-8226 leukemia
RXF 393 renal = system: RXF 393 renal
SF-268 CNS = system: SF-268 CNS
SF-295 CNS = system: SF-295 CNS
SF-539 CNS = system: SF-539 CNS
SK-MEL-2 melanoma = system: SK-MEL-2 melanoma
SK-MEL-28 melanoma = system: SK-MEL-28 melanoma
SK-MEL-5 melanoma = system: SK-MEL-5 melanoma
SK-OV-3 ovarian = system: SK-OV-3 ovarian
SN12C renal = system: SN12C renal
SNB-19 CNS = system: SNB-19 CNS
SNB-75 CNS = system: SNB-75 CNS
SR leukemia = system: SR leukemia
SW-620 colon = system: SW-620 colon
T-47D breast = system: T-47D breast
TK-10 renal = system: TK-10 renal
U251 CNS = system: U251 CNS
UACC-257 melanoma = system: UACC-257 melanoma
UACC-62 melanoma = system: UACC-62 melanoma
UO-31 renal = system: UO-31 renal

Structure (SMILES): O=C(Nc1ncc(Cc2ccccc2)s1)c1sc2ccccc2c1Cl
- GI50 (786-0 renal): 1320 nM
- TGI (786-0 renal): 40100 nM
- GI50 (A498 renal): 286 nM
- TGI (A498 renal): 5590 nM
- GI50 (A549 NSCLC): 853 nM
- TGI (A549 NSCLC): > 50400 nM
- GI50 (ACHN renal): 496 nM
- TGI (ACHN renal): 48600 nM
- GI50 (BT-549 breast): 2210 nM
- TGI (BT-549 breast): 40000 nM
- GI50 (CAKI-1 renal): 574 nM
- TGI (CAKI-1 renal): 24500 nM
- GI50 (CCRF-CEM leukemia): 593 nM
- TGI (CCRF-CEM leukemia): > 100000 nM
- GI50 (COLO 205 colon): 2160 nM
- TGI (COLO 205 colon): > 100000 nM
- GI50 (DU-145 prostate): 2800 nM
- TGI (DU-145 prostate): 36500 nM
- GI50 (EKVX NSCLC): 969 nM
- TGI (EKVX NSCLC): > 100000 nM
- GI50 (HCC-2998 colon): 552 nM
- TGI (HCC-2998 colon): 12300 nM
- GI50 (HCT-116 colon): 469 nM
- TGI (HCT-116 colon): > 76600 nM
- GI50 (HCT-15 colon): 44.9 nM
- TGI (HCT-15 colon): > 100000 nM
- GI50 (HL-60(TB) leukemia): 375 nM
- TGI (HL-60(TB) leukemia): > 100000 nM
- GI50 (HOP-62 NSCLC): 1230 nM
- TGI (HOP-62 NSCLC): > 62400 nM
- GI50 (HOP-92 NSCLC): 1230 nM
- TGI (HOP-92 NSCLC): 45300 nM
- GI50 (HS 578T breast): 537 nM
- TGI (HS 578T breast): 29900 nM
- GI50 (HT29 colon): 449 nM
- TGI (HT29 colon): > 63100 nM
- GI50 (IGROV1 ovarian): 903 nM
- TGI (IGROV1 ovarian): 61500 nM
- GI50 (K-562 leukemia): 434 nM
- TGI (K-562 leukemia): > 100000 nM
- GI50 (KM12 colon): 68.4 nM
- TGI (KM12 colon): 29000 nM
- GI50 (LOX IMVI melanoma): 1070 nM
- TGI (LOX IMVI melanoma): > 61800 nM
- GI50 (M14 melanoma): 448 nM
- TGI (M14 melanoma): 32200 nM
- GI50 (MALME-3M melanoma): 809 nM
- TGI (MALME-3M melanoma): 24300 nM
- GI50 (MCF7 breast): 37 nM
- TGI (MCF7 breast): > 100000 nM
- GI50 (MDA-MB-231 breast): 1210 nM
- TGI (MDA-MB-231 breast): 19300 nM
- GI50 (MDA-MB-435): 250 nM
- TGI (MDA-MB-435): 805 nM
- GI50 (MOLT-4 leukemia): 680 nM
- TGI (MOLT-4 leukemia): > 100000 nM
- GI50 (NCI-H226 lung): 2200 nM
- TGI (NCI-H226 lung): > 46600 nM
- GI50 (NCI-H23 lung): 2250 nM
- TGI (NCI-H23 lung): > 61600 nM
- GI50 (NCI-H460 lung): 253 nM
- TGI (NCI-H460 lung): 18400 nM
- GI50 (NCI-H522 lung): 739 nM
- TGI (NCI-H522 lung): 15800 nM
- GI50 (NCI/ADR-RES ovarian): 573 nM
- TGI (NCI/ADR-RES ovarian): 35100 nM
- GI50 (OVCAR-3 ovarian): 523 nM
- TGI (OVCAR-3 ovarian): 14400 nM
- GI50 (OVCAR-4 ovarian): 3320 nM
- TGI (OVCAR-4 ovarian): 79400 nM
- GI50 (OVCAR-5 ovarian): 2210 nM
- TGI (OVCAR-5 ovarian): 64200 nM
- GI50 (OVCAR-8 ovarian): 2540 nM
- TGI (OVCAR-8 ovarian): > 100000 nM
- GI50 (PC-3 prostate): 948 nM
- TGI (PC-3 prostate): > 60400 nM
- GI50 (RPMI-8226 leukemia): 1330 nM
- TGI (RPMI-8226 leukemia): > 100000 nM
- GI50 (RXF 393 renal): 665 nM
- TGI (RXF 393 renal): 10600 nM
- GI50 (SF-268 CNS): 1370 nM
- TGI (SF-268 CNS): > 100000 nM
- GI50 (SF-295 CNS): 753 nM
- TGI (SF-295 CNS): 19600 nM
- GI50 (SF-539 CNS): 497 nM
- TGI (SF-539 CNS): 5230 nM
- GI50 (SK-MEL-2 melanoma): 534 nM
- TGI (SK-MEL-2 melanoma): > 64400 nM
- GI50 (SK-MEL-28 melanoma): 2180 nM
- TGI (SK-MEL-28 melanoma): > 80400 nM
- GI50 (SK-MEL-5 melanoma): 63.4 nM
- TGI (SK-MEL-5 melanoma): 691 nM
- GI50 (SK-OV-3 ovarian): 2770 nM
- TGI (SK-OV-3 ovarian): 93700 nM
- GI50 (SN12C renal): 1240 nM
- TGI (SN12C renal): > 100000 nM
- GI50 (SNB-19 CNS): 777 nM
- TGI (SNB-19 CNS): 59900 nM
- GI50 (SNB-75 CNS): 368 nM
- TGI (SNB-75 CNS): 12900 nM
- GI50 (SR leukemia): 522 nM
- TGI (SR leukemia): > 100000 nM
- GI50 (SW-620 colon): 476 nM
- TGI (SW-620 colon): > 100000 nM
- GI50 (T-47D breast): 71.3 nM
- TGI (T-47D breast): > 100000 nM
- GI50 (TK-10 renal): 4010 nM
- TGI (TK-10 renal): 69100 nM
- GI50 (U251 CNS): 593 nM
- TGI (U251 CNS): 26000 nM
- GI50 (UACC-257 melanoma): 1930 nM
- TGI (UACC-257 melanoma): > 66500 nM
- GI50 (UACC-62 melanoma): 147 nM
- TGI (UACC-62 melanoma): 17800 nM
- GI50 (UO-31 renal): 1410 nM
- TGI (UO-31 renal): > 82300 nM
